In brackets after ≈: the same amount, converted by molar mass.
Experiments:
[1] = Gelation ability in water and organic solvents (inverted tube, visual); format: physicochemical; details: for gel formation: highly polar solvents like water, methanol, and non-polar solvents like nonane, benzene, toluene
Description: Typically, a gelator (0.01-2 mg) in a required solvent (0.1-1 mL) was heated until the solid was completely dissolved. The resulting solution was slowly allowed to cool to room temperature and gelation was visually observed. […] All gels obtained were thermally reversible. Above their gelation temperature, the gels dissolved in water but could be returned to their original gel state upon cooling.
Typically, the gelator (0.01-2 mg) and required solvent (0.1-1 mL) were placed into a 2 mL scintillation vial, which was then sealed with a screw cap. The vial was heated and shook until the solid was completely dissolved. The solution was set aside and allowed to cool to room temperature. Gelation was considered to have occurred when no gravitational flow in the inverted tube was observed.

[2] = molecular target: T1, hydrolase enzyme (Lipolase 100L, Type EX) (Thermomyces lanuginosus, UniProt O59952); assay: Enzyme-triggered gel degradation and curcumin release from hydrogel, monitored by UV absorption; details: for curcumin release: room temperature
T1 construct: purchased Lipolase 100L, Type EX
T1 sequence (O59952 23-291): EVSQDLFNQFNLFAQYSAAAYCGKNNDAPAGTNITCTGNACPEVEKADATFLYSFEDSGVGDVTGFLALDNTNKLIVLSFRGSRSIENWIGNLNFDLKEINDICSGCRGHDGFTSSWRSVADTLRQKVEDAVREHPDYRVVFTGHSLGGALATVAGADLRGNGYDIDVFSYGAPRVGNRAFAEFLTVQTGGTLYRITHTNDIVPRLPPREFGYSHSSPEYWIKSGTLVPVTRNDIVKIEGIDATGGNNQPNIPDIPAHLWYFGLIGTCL
Description: Solubilization of hydrophobic drugs and developing suitable drug delivery systems is a challenging task in drug discovery research.^18 A conceptual approach of single-step enzyme-triggered drug delivery at physiological conditions was performed where a hydrophobic drug molecule was encapsulated—solubilized without chemical modification—in a hydrogel and subsequent release of the drug by breaking the gel by using hydrolase enzyme (Lipolase 100L, Type EX). […] Drug release was monitored by absorbance spectra of the drug. Control of the drug release rate was achieved by manipulating the enzyme concentration and/or temperature. The by-products formed after the gel degradation were characterized and the cleavage site of the gelator by enzyme was determined. Gel degradation occurred due to the cleavage of the ester bond in the gelator by the hydrolase enzyme. ^18Miyata, T., Uragami, T. & Nakamae, K. Biomolecule-sensitive hydrogel. Adv. Drug Delivery Rev. 54, 79-98 (2002).
(§1) The release of curcumin into the solution in the presence of enzyme was monitored by measuring the curcumin UV-absorption spectrum. The absorption spectrum recorded in aqueous gel solution was compared with the curcumin spectra recorded in methanol. […] To test this hypothesis, water was added to the preformed gel and left for 12 hrs. The UV-absorption of the supernatant was recorded. […] XXVII. Cyclodextrin complexation: solubility, chemical and photochemical stability. Int. J. Pharm. 244, 127-135 (2002).
First, 0.5 mL of lipase—Lipolase 100L, Type EX, lipase units 100 KLU/g—was added to the preformed gel and kept at 37° C.—far lower than gel melting temperature. […] This was confirmed by spectroscopic experiments. Aliquots were collected after addition of an enzyme to the hydrogel after 10 min and 12 hrs and absorbance spectrum were recorded.
To find out the role of the enzyme on hydrogel degradation, similar experiments were carried out by adding only water without an enzyme. As expected, the curcumin-encapsulated gel was still intact after incubating for a few days at 37° C. There was no visual change in the gel volume and in the added solution. […] To this, 0.5 mL of lipolase was added and incubated at 37° C.
To obtain control on the rate of release, the role of enzyme concentration and temperature on gel degradation or controlled drug release was investigated. In a first set of experiments, the temperature was changed while keeping enzyme concentration constant. After addition of the enzyme to the preformed gel, the vial was kept at room temperature for two days, and as explained previously, curcumin release was monitored by absorption spectra.
In a second set of experiments, the enzyme concentration was changed while keeping the temperature constant. […] At room temperature, even after several days, there was no release. Then the vial was placed at 37° C. in incubation and took 300 min to start the drug release, which eventually took 4,320 min to release completely. In addition to this, a similar low enzyme concentrated vial was directly incubated at 45° C.
It is important to characterize the products/compounds formed after gel degradation. […] Upon gel degradation, a white fluffy solid was produced, which is not soluble in water, and thus settled down in the vial. The solid was isolated and characterized by ^1H-NMR, and it matched with the NMR of pure stearic acid. See FIG. 12, which is a comparison of the ^1H-NMR spectra of commercially available stearic acid and the white fluffy solid obtained after gel degradation, which was filtered, freeze-dried, and NMR recorded in Chloroform.

[3] = Solubilization (encapsulation) of curcumin in hydrogel; format: physicochemical; details: 0.5 wt % hydrogel of derivative 3, aqueous with cosolvent or surfactant or cyclodextrin
Description: as §1

Amygdalin Octadecanoate [derivative 3]
gel formation [1]: formed gels
Minimum gelation concentration (MGC) ([1]; in benzene): 0.2 wt %
Minimum gelation concentration (MGC) ([1]; in water): 0.05 wt %
number of solvents gelled ([1]; ten solvents tested (water, polar and nonpolar organic solvents)): all ten solvents
gel degradation ([2]; hydrogel of derivative 3 without curcumin, 0.5 mL lipolase, 37° C., after 12 hrs): degraded completely
site of gelator cleavage by enzyme (TLC, 1H-NMR of products) ([2]; products after gel degradation: amygdalin, stearic acid): cleaving the ester bond

COc1cc(/C=C/C(=O)CC(=O)/C=C/c2ccc(O)c(OC)c2)ccc1O [curcumin]
solubility [3]: 1000 µM (≈ 368 µg/mL)
time to complete curcumin release ([2]; lipase 100 KLU/g, 37° C.): ≤ 720 min
time to start of curcumin release ([2]; lipase 100 KLU/g, 37° C.): 120 min
time to complete curcumin release ([2]; lipase 100 KLU/g, 45° C.): 270 min
time to start of curcumin release ([2]; lipase 100 KLU/g, 45° C.): ≤ 30 min
curcumin release ([2]; lipase 100 KLU/g, two days): no release
time to complete curcumin release ([2]; lipolase 10 KLU/g, 37° C.): 4,320 min
time to start of curcumin release ([2]; lipolase 10 KLU/g, 37° C.): 300 min
time to complete curcumin release ([2]; lipolase 10 KLU/g, 45° C.): 2,880 min
time to start of curcumin release ([2]; lipolase 10 KLU/g, 45° C.): 180 min
curcumin release ([2]; lipolase 10 KLU/g, several days): no release
curcumin in supernatant (UV absorption) ([2]; water added to preformed gel of derivative 3, left 12 hrs, no enzyme): Absence of any absorbance peak

Amygdalin Tetradecanoate [derivative 2]
gel formation [1]: formed gels

— patent US8968784B2, “Method for preparing hydro/organo gelators from disaccharide sugars by biocatalysis and their use in enzyme-triggered drug delivery” (Research Foundation of the City University of New York, priority 2006, dated 2015)
